Laboratory results reported in BindingDB's records for doi:10.1021/jm970104t (Boehringer Ingelheim, 1998).
Where a SMILES comes first, the peptide text is derived from it. [ ]: non-standard residue; d: D form. The star is where a group is joined. ξ: configuration not given here. Tle = CC(C)(C)[C@H](N)C(=O)O; ξNva = CCCC(N)C(=O)O; ξA = CC(N)C(=O)O; CF3 = FC(F)(F)*

Molecular target: HCMV protease (Human cytomegalovirus)
Assay: Micro molar potency to inhibit human cytomegalovirus (HCMV) protease

Row | IC50 | Structure (SMILES)
1 | > 300 µM | CCCC(NC(=O)[C@H](CC(N)=O)NC(=O)[C@@H](NC(=O)[C@@H](NC(C)=O)C(C)C)C(C)C)C(=O)C(F)(F)F (stereo partly drawn) [(S)-2-[(S)-2-((S)-2-Acetylamino-3-methyl-butyrylamino)-3-methyl-butyrylamino]-N*1*-[1-(2,2,2-trifluoro-acetyl)-butyl]-succinamide] (Ac-VVN[ξNva]-CF3)
2 | 33 µM | CN(C)C(=O)C[C@H](NC(=O)[C@@H](NC(=O)CC(C)(C)C)C(C)(C)C)C(=O)N[C@H]1CN(OCc2ccccc2)C1=O [(S)-N*1*-((S)-1-Benzyloxy-2-oxo-azetidin-3-yl)-2-[(S)-2-(3,3-dimethyl-butyrylamino)-3,3-dimethyl-butyrylamino]-N*4*,N*4*-dimethyl-succinamide]
3 | > 300 µM | CC(NC(=O)[C@H](CC(=O)N(C)C)NC(=O)[C@@H](NC(=O)CC(C)(C)C)C(C)(C)C)C(=O)C(=O)N(C)C (stereo partly drawn) [(S)-2-[(S)-2-(3,3-Dimethyl-butyrylamino)-3,3-dimethyl-butyrylamino]-N*1*-(2-dimethylcarbamoyl-1-methyl-2-oxo-ethyl)-N*4*,N*4*-dimethyl-succinamide]
4 | 12 µM | CC(NC(=O)[C@H](CC(=O)N(C)C)NC(=O)[C@@H](N)C(C)(C)C)C(=O)C(F)(F)F (stereo partly drawn) [(S)-2-((S)-2-Amino-3,3-dimethyl-butyrylamino)-N*4*,N*4*-dimethyl-N*1*-(3,3,3-trifluoro-1-methyl-2-oxo-propyl)-succinamide] (H-[Tle]-Asp(NMe2)-[ξA]-CF3)
5 | 0.6 µM | Cc1ccc2nc(C(=O)C(C)NC(=O)[C@H](CC(=O)N(C)C)NC(=O)[C@@H](NC(=O)CC(C)(C)C)C(C)(C)C)oc2c1 (stereo partly drawn) [(S)-2-[(S)-2-(3,3-Dimethyl-butyrylamino)-3,3-dimethyl-butyrylamino]-N*4*,N*4*-dimethyl-N*1*-[1-methyl-2-(6-methyl-benzooxazol-2-yl)-2-oxo-ethyl]-succinamide]
6 | 20 µM | CC(NC(=O)[C@H](CC(=O)N(C)C)NC(=O)[C@@H](O)C(C)(C)C)C(=O)C(F)(F)F (stereo partly drawn) [(S)-2-((S)-2-Hydroxy-3,3-dimethyl-butyrylamino)-N*4*,N*4*-dimethyl-N*1*-(3,3,3-trifluoro-1-methyl-2-oxo-propyl)-succinamide]
